Source: patent US9840509B2, “Heterocyclic compounds” (CADILA HEALTHCARE LIMITED, priority 2014, dated 2017)

How the values were obtained:
CYP 2C19 = molecular target: T1, CYP 2C19 (Homo sapiens, UniProt P33261); assay: CYP inhibition in human liver microsomes, 2C19; format: in vitro ADME; conditions: pH 7.4, @ 10 μM concn
T1 construct: from tissue; host or cells: human liver microsomes
Outline: (§1)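 Human liver microsomes in 100 mM phosphate pH 7.4 with CYP-specific probe substrate were incubated with test compound at […] and 10 μM, started with 1 mM NADPH at 37° C. Reactions were stopped with acetonitrile, and marker-reaction metabolites were quantified by LC-MS/MS. Final solvent was ≤0.2%.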

CYP 2C9 = molecular target: T2, CYP 2C9 (Homo sapiens, UniProt P11712); assay: CYP inhibition in human liver microsomes, 2C9; format: in vitro ADME; conditions: pH 7.4, @ 10 μM concn
T2 construct: from tissue; host or cells: human liver microsomes
T2 sequence (P11712 whole entry): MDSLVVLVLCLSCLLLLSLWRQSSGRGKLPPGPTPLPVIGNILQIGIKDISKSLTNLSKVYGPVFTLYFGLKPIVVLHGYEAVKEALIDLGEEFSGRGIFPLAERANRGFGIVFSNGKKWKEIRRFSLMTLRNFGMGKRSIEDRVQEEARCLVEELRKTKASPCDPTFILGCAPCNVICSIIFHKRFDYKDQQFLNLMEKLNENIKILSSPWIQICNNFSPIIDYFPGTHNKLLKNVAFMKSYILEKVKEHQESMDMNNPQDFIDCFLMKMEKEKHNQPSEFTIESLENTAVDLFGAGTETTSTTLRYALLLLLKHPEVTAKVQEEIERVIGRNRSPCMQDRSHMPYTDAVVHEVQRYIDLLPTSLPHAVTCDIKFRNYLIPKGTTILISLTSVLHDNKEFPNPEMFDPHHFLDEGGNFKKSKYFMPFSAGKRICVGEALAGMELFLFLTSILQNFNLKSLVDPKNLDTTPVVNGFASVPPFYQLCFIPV
Outline: as §1

SCW Arthritis Model = assay: SCW Arthritis model (PGPS-induced paw swelling); format: in vivo, Female Sprague dawley (SD) rats; conditions: Dose: 10 mpk, po, rats, Mean ± SD, n = 8
Experimental: All the animal experiments were carried out in female rats and mice, bred in-house. Animals were housed in groups of 6 animals per cage, for a week, in order to habituate them to vivarium conditions (25±4° C., 60-65% relative humidity, 12: 12 h light: dark cycle, with lights on at 7.30 am). All the animal experiments were carried out according to the internationally valid guidelines following approval by the ‘Zydus Research Center animal ethical committee’. SCW Arthritis Female Sprague dawley (SD) rats were primed with an intra-articular injection of 20 μl of peptidoglycan polysaccharide (PGPS), at 0.5 mg/ml of rhamnose in the right ankle. At 2 weeks the paw swelling were measured using a plethysmometer and rats assigned to groups based on initial paw swelling. On day 14 after model initiation, rats were dosed orally (po) with the test compounds. Following the dose administration, 1 h later, the rats received a booster dose of 0.5 ml of PGPS (0.5 mg/ml of rhamnose) via i.v. injection using their tail vein. Compounds were dosed for the following two more days and their paw volumes were measured for 3 more days. The efficacy of the compound was determined as percentage inhibition of paw swelling verses the control (untreated) group.

CYP 1A2 = molecular target: T3, CYP 1A2 (Homo sapiens, UniProt P05177); assay: CYP inhibition in human liver microsomes, 1A2; format: in vitro ADME; conditions: pH 7.4, @ 10 μM concn
T3 construct: from tissue; host or cells: human liver microsomes
T3 sequence (P05177 1-516): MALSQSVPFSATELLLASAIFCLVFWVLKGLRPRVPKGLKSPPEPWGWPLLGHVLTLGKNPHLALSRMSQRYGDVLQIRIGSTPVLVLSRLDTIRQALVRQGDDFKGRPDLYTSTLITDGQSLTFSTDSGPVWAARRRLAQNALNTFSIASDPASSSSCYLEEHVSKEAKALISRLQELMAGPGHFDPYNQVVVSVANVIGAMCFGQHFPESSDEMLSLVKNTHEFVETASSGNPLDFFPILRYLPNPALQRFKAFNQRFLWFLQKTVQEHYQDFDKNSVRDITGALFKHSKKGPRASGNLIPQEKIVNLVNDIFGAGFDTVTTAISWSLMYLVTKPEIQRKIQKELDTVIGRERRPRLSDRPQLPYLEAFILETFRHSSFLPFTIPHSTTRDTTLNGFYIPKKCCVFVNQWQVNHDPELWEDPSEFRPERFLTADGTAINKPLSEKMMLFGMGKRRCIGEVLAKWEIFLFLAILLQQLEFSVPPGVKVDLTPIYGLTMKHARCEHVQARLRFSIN
Outline: as §1

CYP 2D6 = molecular target: T4, CYP 2D6 (Homo sapiens, UniProt P10635); assay: CYP inhibition in human liver microsomes, 2D6; format: in vitro ADME; conditions: pH 7.4, @ 10 μM concn
T4 construct: from tissue; host or cells: human liver microsomes
T4 sequence (P10635 whole entry): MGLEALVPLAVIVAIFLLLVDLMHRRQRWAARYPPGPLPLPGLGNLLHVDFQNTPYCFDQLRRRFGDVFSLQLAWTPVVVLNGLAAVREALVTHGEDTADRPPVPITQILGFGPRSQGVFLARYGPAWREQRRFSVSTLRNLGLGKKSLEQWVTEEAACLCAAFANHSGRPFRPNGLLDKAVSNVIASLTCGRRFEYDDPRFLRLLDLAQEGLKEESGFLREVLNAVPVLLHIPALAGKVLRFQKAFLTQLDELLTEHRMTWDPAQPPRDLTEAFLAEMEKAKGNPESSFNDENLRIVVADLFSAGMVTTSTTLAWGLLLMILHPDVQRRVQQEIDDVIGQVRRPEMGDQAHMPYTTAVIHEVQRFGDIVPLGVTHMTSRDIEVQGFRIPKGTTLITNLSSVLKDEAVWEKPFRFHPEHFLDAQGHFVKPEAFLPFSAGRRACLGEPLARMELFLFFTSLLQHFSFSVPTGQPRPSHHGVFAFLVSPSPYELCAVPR
Outline: as §1

[1] = molecular target: T5, recombinant purified human BTK (Homo sapiens, UniProt Q06187); assay: In vitro BTK kinase assay on ADP Glo platform; format: biochemical; conditions: 2 hr room temperature, read-out: In-vitro BTK inhibitory activity: IC50
T5 construct: purchased SignalChem, USA
T5 sequence (Q06187 whole entry): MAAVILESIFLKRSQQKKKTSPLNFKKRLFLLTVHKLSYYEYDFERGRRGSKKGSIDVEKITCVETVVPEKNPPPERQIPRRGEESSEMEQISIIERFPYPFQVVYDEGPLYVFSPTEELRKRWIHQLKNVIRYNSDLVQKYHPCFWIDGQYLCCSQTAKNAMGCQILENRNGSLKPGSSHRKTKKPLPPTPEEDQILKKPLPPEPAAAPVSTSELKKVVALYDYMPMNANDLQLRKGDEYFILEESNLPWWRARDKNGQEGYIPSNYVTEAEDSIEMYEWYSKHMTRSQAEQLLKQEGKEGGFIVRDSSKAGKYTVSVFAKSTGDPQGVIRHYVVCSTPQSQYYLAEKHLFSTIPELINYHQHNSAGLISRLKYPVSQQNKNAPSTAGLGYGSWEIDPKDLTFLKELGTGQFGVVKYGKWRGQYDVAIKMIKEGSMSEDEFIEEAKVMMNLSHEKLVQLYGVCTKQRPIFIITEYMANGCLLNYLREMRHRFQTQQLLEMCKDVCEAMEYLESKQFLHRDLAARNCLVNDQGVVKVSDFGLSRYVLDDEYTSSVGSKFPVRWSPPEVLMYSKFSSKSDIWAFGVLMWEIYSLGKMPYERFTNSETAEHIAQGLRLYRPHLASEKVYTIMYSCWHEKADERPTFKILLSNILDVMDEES
Outline: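 Recombinant human BTK (3 ng/reaction) with compound dilutions in Tris pH 7.5, MgCl2/MnCl2, BSA, DTT; started with 50 µM ATP (final) and polyGln4Tyr1 substrate, 2 h at room temperature. ADP formed detected by ADP-Glo luminescence; IC50 by nonlinear fit versus uninhibited enzyme as 100%.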

CYP 3A4 = molecular target: T6, CYP 3A4 (Homo sapiens, UniProt P08684); assay: CYP inhibition in human liver microsomes, 3A4; format: in vitro ADME; conditions: pH 7.4, @ 10 μM concn
T6 construct: from tissue; host or cells: human liver microsomes
T6 sequence (P08684 whole entry): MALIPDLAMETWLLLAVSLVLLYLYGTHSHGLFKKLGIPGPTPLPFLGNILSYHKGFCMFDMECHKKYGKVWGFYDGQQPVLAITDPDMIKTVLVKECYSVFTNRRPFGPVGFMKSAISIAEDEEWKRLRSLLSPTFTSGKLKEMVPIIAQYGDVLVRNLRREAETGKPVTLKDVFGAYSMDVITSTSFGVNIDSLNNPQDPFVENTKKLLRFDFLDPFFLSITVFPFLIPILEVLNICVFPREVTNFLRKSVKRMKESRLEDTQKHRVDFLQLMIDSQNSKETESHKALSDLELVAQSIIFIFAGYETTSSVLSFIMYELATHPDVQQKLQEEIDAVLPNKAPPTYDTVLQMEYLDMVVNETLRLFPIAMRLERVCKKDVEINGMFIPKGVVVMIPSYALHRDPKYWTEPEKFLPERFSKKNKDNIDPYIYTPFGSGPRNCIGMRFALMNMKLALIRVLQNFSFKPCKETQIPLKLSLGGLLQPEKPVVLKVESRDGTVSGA
Outline: as §1

T1 sequence (P33261 whole entry): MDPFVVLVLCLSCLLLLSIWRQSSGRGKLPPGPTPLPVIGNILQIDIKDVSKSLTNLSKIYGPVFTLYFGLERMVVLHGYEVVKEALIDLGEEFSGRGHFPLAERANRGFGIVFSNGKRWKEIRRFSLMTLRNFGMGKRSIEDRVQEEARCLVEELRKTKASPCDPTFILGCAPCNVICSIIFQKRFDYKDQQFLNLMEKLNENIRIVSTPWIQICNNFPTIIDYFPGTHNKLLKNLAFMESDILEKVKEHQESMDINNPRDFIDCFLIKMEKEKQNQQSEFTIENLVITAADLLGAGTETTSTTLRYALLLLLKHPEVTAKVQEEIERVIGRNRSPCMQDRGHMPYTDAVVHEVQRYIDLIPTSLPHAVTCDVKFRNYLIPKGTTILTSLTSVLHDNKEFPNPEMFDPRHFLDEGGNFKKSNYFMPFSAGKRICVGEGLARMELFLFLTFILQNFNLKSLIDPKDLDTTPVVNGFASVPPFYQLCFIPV

C=CC(=O)N1CC2CC(N3C(=O)N(c4ccc(Oc5ccccc5)cc4)C4C(N)=NC=NC43)CC2C1 (centres unmarked) [Compound 25, 9-(2-acryloyloctahydrocyclopenta[c]pyrrol-5-yl)-6-amino-7-(4-phenoxyphenyl)-5,7-dihydro-4H-purin-8(9H)-one]
inhibition at 10 μM (CYP 2C19): < 50%
inhibition at 10 μM (CYP 2C9): < 50%
% inhibition of paw inflammation, Day-16, in SCW Arthritis Model (SCW Arthritis Model): 69.6 ± 12.7%
inhibition at 10 μM (CYP 1A2): < 50%
inhibition at 10 μM (CYP 2D6): < 50%
IC50 [1]: 5 nM
inhibition at 10 μM (CYP 3A4): < 50%

C=CC(=O)N1CC2CC(n3nc(-c4ccc(NC(=O)c5ccccn5)cc4)c4c(N)ncnc43)CC2C1 (centres unmarked) [Compound 32, N-(4-(1-(2-acryloyloctahydrocyclopenta[c]pyrrol-5-yl)-4-amino-1H-pyrazolo[3,4-d]pyrimidin-3-yl)phenyl)picolinamide]
inhibition at 10 μM (CYP 2C19): < 50%
inhibition at 10 μM (CYP 2C9): < 50%
% inhibition of paw inflammation, Day-16, in SCW Arthritis Model (SCW Arthritis Model): 75.3 ± 6.2%
inhibition at 10 μM (CYP 1A2): < 50%
inhibition at 10 μM (CYP 2D6): < 50%
IC50 [1]: 4 nM
inhibition at 10 μM (CYP 3A4): > 50%

C=CC(=O)N1CC2CC(n3nc(-c4ccc(C(=O)Nc5cc(C)ccn5)cn4)c4c(N)ncnc43)CC2C1 (centres unmarked) [Compound 42, 6-(1-(2-acryloyloctahydrocyclopenta[c]pyrrol-5-yl)-4-amino-1H-pyrazolo[3,4-d]pyrimidin-3-yl)-N-(4-methylpyridin-2-yl)nicotinamide]
inhibition at 10 μM (CYP 2C19): < 50%
inhibition at 10 μM (CYP 2C9): < 50%
% inhibition of paw inflammation, Day-16, in SCW Arthritis Model (SCW Arthritis Model): 51.3 ± 9.7%
inhibition at 10 μM (CYP 1A2): < 50%
inhibition at 10 μM (CYP 2D6): < 50%
IC50 [1]: 0.1 nM
inhibition at 10 μM (CYP 3A4): < 50%

C=CC(=O)N1CC2CC(n3nc(-c4ccc(-c5nnc(-c6cnccn6)s5)cc4)c4c(N)ncnc43)CC2C1 (centres unmarked) [Compound 46, 1-(5-(4-amino-3-(4-(5-(pyrazin-2-yl)-1,3,4-thiadiazol-2-yl)phenyl)-1H-pyrazolo[3,4-d]pyrimidin-1-yl)hexahydrocyclopenta[c]pyrrol-2(1H)-yl)prop-2-en-1-one]
inhibition at 10 μM (CYP 2C19): < 50%
inhibition at 10 μM (CYP 2C9): < 50%
% inhibition of paw inflammation, Day-16, in SCW Arthritis Model (SCW Arthritis Model): 81.8 ± 11.2%
inhibition at 10 μM (CYP 1A2): < 50%
inhibition at 10 μM (CYP 2D6): < 50%
IC50 [1]: 1 nM
inhibition at 10 μM (CYP 3A4): < 50%

C=CC(=O)N1CC2CC(n3nc(-c4ccc(C(=O)N(C)c5cc(C)ccn5)cc4)c4c(N)ncnc43)CC2C1 (centres unmarked) [Compound 54, 4-(1-(2-acryloyloctahydrocyclopenta[c]pyrrol-5-yl)-4-amino-1H-pyrazolo[3,4-d]pyrimidin-3-yl)-N-methyl-N-(4-methylpyridin-2-yl)benzamide]
inhibition at 10 μM (CYP 2C19): < 50%
inhibition at 10 μM (CYP 2C9): < 50%
% inhibition of paw inflammation, Day-16, in SCW Arthritis Model (SCW Arthritis Model): 89.2 ± 10.3%
inhibition at 10 μM (CYP 1A2): < 50%
inhibition at 10 μM (CYP 2D6): < 50%
IC50 [1]: 0.1 nM
inhibition at 10 μM (CYP 3A4): < 50%
